Measured values: patent US20110123483A1, “HMGB1 FOR CANCER TREATMENT” (DEUTSCHES KREBSFORSCHUNGSZENTRUM, priority 2009, published 2011)

What was measured:
Type in all cases: cell-based, human
[1] = system: U251MG glioblastoma cells; experiment: Cytotoxicity assay, cell survival by crystal violet staining
Protocol: 20,000 U251MG glioblastoma cells or human astrocytic cells (ScienCell) were plated into 96-well plates. After 24 h cells were treated with rhHMGB1 (Sigma Aldrich) or rat recombinant HMGB1 (generously provided by Angelika Bierhaus, Heidelberg, Germany), and TRAIL (for 24 h) or Temozolomide (for 72 h) alone or in combination, respectively. […] Cell proliferation was assessed by seeding 50,000 U251 MG cells in 6 cm culture plates and treatment with rhHMGB1, followed by counting the cells in a Neubauer chamber at day 0, 2, 4 and 5.

U251 MG cells [2] = experiment: ROS measurement by DCF fluorescence and FACS analysis; settings: co-treatment with rhHMGB1 (FIG. 3A)
Protocol: For measurement of reactive oxygen species (ROS) and mitochondrial membrane potential (MMP) 1.5×10^6 U251 MG cells were seeded in 6 cm plates, treated with 40 nM rhHMGB1 for 24 h and incubated with the fluorescent DiOC6 (3,3′-dihexyloxacarbocyanine iodide, 40 nmol/ll, Sigma Chemical Co., St. Louis, Mo.) or with the fluorescent H2DCF-DA (dichlorodihydrofluorescein diacetate, 10 μM, Invitrogen) for 1 h at 37° C., respectively. The cells were trypsinized and centrifuged at 2,000 rpm for 5 min at 4° C. The supernatant was discarded and the pellet was washed 2× with sterile Dulbecco's PBS containing 0.1% fetal calf serum on ice and again centrifuged at 2,000 rpm for 5 min at 4° C. The pellet was resuspended in 500 μl sterile Dulbecco's PBS on ice. Oxidation of H2DCF to DCF by ROS and DiOC6 accumulation in mitochondria were measured immediately at FL-1 by flow cytometry using a FACScalibur (Beckton Dickinson, Heidelberg, Germany). Cell cycle was determined by measurement of priopidiumiodide (PI)-uptake of the cells according to standard procedures. Briefly, the cells were harvested and washed twice in sterile Dulbecco's PBS on ice, spun down at 2,000 rpm for 5 min at 4° C. and fixed with 70% ethanol for 30 min at 4° C. Contaminating RNA was eliminated by treatment with 100 μg/ml of RNase A, then 50 μg/ml PI was added and DNA content was measured immediately at FI-2. […]

JNK1/2 = experiment: Western blot analysis of JNK1/2 phosphorylation; settings: NAC, rhHMGB1 40 nM (FIG. 3E)
Protocol: The U251 MG tumor cells were lysed in lysis buffer containing 20 mmol/L Tris-HCl (pH 7.4), 137 mmol/L NaCl, 10% (v/v) glycerine, 1% Triton X-100, 2 mmol/L EDTA, 100 mmol/L phenylmethylsulfonyl fluoride, and protease inhibitors (Complete mini; Roche Molecular Biochemicals). For the detection of phosphoprotein levels, 10 mmol/L NaPPi, 50 mmol/L NaF, and 20 mmol/L NaVO4 were added to the lysis buffer. After 15 min incubation on ice, the lysates were centrifuged at 14,000×g for 10 min. The total protein concentration of the lysates was measured using the Bradford assay (Bio-Rad). Soluble protein (25-100 μg per lane) was separated on 10% to 15% polyacrylamide gels and blotted onto nitrocellulose by standard procedures. […]

pseudo rho zero cells = experiment: Survival of pseudo rho zero cells by crystal violet analysis; settings: TRAIL 100 ng/ml, 24 h (FIG. 5)
Protocol: U251 glioblastoma cells and non-immortalized human astrocytic cells (ScienCell, USA) were maintained in DMEM (Life Technologies) containing 10% FCS, 4.5 g/L glucose, glutamine, 110 mg/L sodium pyruvate, and 1% penicillin-streptomycin (Life Technologies) and in astrocyte medium (ScienCell) containing 2% FBS (fetal bovine serum) and 1% penicillin-streptomycin at 37° C. and 5% CO2. For the generation of pseudo rho zero cells (0.0), U251 MG cells were treated with low dose (250 ng/ml) ethidiumbromide for 3 months. The cells were supplemented with DMEM (10% FCS, 1% P/S) containing 50 μg/ml L-pyruvate and 5 mg/ml uridine (King and Attardi, 1989).
20,000 U251MG glioblastoma cells or human astrocytic cells (ScienCell) were plated into 96-well plates. After 24 h cells were treated with rhHMGB1 (Sigma Aldrich) or rat recombinant HMGB1 (generously provided by Angelika Bierhaus, Heidelberg, Germany), and TRAIL (for 24 h) or Temozolomide (for 72 h) alone or in combination, respectively. Cell survival was measured by crystal violet staining as described previously (Gdynia et al., 2007). Cell proliferation was assessed by seeding 50,000 U251 MG cells in 6 cm culture plates and treatment with rhHMGB1, followed by counting the cells in a Neubauer chamber at day 0, 2, 4 and 5.

U251 MG cells [3] = experiment: Subcellular fractionation and Western blot: cytochrome c release, caspase 3 cleavage
Protocol: The U251 MG tumor cells were lysed in lysis buffer containing 20 mmol/L Tris-HCl (pH 7.4), 137 mmol/L NaCl, 10% (v/v) glycerine, 1% Triton X-100, 2 mmol/L EDTA, 100 mmol/L phenylmethylsulfonyl fluoride, and protease inhibitors (Complete mini; Roche Molecular Biochemicals). For the detection of phosphoprotein levels, 10 mmol/L NaPPi, 50 mmol/L NaF, and 20 mmol/L NaVO4 were added to the lysis buffer. After 15 min incubation on ice, the lysates were centrifuged at 14,000×g for 10 min. The total protein concentration of the lysates was measured using the Bradford assay (Bio-Rad). Soluble protein (25-100 μg per lane) was separated on 10% to 15% polyacrylamide gels and blotted onto nitrocellulose by standard procedures. The membranes were washed, incubated with primary antibody as indicated: mouse anti-human caspase-3 (1:500, Imgenex, San Diego, Calif.); polyclonal rabbit anti-human phosphorylated p44/42 mitogen-activated protein kinase and polyclonal rabbit anti-human phosphorylated stress-activated protein kinase/JNK (1:1,000, Cell Signaling Technology, Inc.); polyclonal anti-rabbit JNK 54/46 (1:1,000, Cell Signaling Technology, Inc.); polyclonal rabbit anti-human IkBalpha (1:500, Santa Cruz Biotechnology, Inc.); mouse monoclonal anti-human BNIP3 (1:10,000, R&D Systems, Inc.); mouse monoclonal anti-human phosphorylated-histone H2A.X (Upstate, Inc.); mouse monoclonal anti-human cytochrome c (1:100, BD Biosciences Pharmingen GmbH, Heidelberg, Germany); mouse anti-human cytochrome c oxidase complex IV (1:100, Molecular Probes, Invitrogen, Karlsruhe, Germany); polyclonal rabbit antimalondialdehyde (1:250, Calbiochem, Merck, Darmstadt, Germany) and mouse monoclonal antibodies to β-tubulin or β-actin (1:3,000, Sigma Chemical Co., St. Louis, Mo.), washed, and incubated with the appropriate secondary antibody (1:3,000; horseradish peroxidase-conjugated, Bio-Rad). Bound antibodies were visualized using an enhanced chemiluminescence detection system (GE-Healthcare, Uppsala, Sweden).
Enrichment of mitochondrial fractions was performed using the ApoAlert Cell Fractionation Kit (Clontech, Mountain View, Calif.) as described previously (Gdynia et al., 2008). Briefly, after centrifugation and several washing steps, the cell pellet was resuspended in ice-cold 1× Fractionation Buffer Mix containing protease inhibitors (Complete mini; Roche Molecular Biochemicals, Indianapolis, Ind.) and 1 mM 1,4-Dithio-DL-threitol solution (DTT). After 10 min incubation on ice, cells were homogenized with a dounce tissue grinder. Efficiency of homogenization was controlled by microscopy. The homogenate was centrifuged at 700×g for 10 min at 4° C. and the resulting supernatant at 10,000×g for 25 min at 4° C. […]

## CC(=O)N[C@@H](CS)C(=O)O [NAC, reference compound]
[1]; NAC 1 mM, 48 h co-treatment with rhHMGB1 (FIG. 3B)
  effect on rhHMGB1-induced cell death: substantially inhibited
U251 MG cells [2]
  effect on rhHMGB1-induced ROS generation: partially prevented
JNK1/2
  effect on JNK activation after rhHMGB1 treatment: prevented the activation of JNK

## O=c1ccn([C@@H]2O[C@H](CO)[C@@H](O)[C@H]2O)c(=O)[nH]1 [uridine, reference compound]
[1]; uridine 5 mg/ml in culture medium, 48 h (FIG. 3F)
  effect on rhHMGB1-induced cell death: substantially inhibited

B1: TRAIL: death ligand TRAIL, positive control for cytotoxicity (protein, UniProt P50591 1-281, looked up)
Tumor necrosis factor ligand …: MAMMEVQGGPSLGQTCVLIVIFTVLLQSLCVAVTYVYFTNELKQMQDKYSKSGIACFLKEDDSYWDPNDEESMNSPCWQVKWQLRQLVRKMILRTSEETISTVQEKQQNISPLVRERGPQRVAAHITGTRGRSNTLSSPNSKNEKALGRKINSWESSRSGHSFLSNLHLRNGELVIHEKGFYYIYSQTYFRFQEEIKENTKNDKQMVQYIYKYTSYPDPILLMKSARNSCWSKDAEYGLYSIYQGGIFELKENDRIFVSVTNEHLIDMDHEASFFGAFLVG
Pseudo rho zero cells
  apoptotic signalling in pseudo rho zero cells: still intact
U251 MG cells [3]; TRAIL 200 ng/ml, 3 h (FIG. 6)
  release of cytochrome c into the cytosolic fraction: detected
U251 MG cells [3]; TRAIL treatment (FIG. 6)
  cleavage of caspase 3: observed
